Measurements published in publication PMC6032158, “Structure–Activity Relationship of Piplartine and Synthetic Analogues against Schistosoma mansoni and Cytotoxicity to Mammalian Cells” (International Journal of Molecular Sciences, 2018).
“Also recorded” adds a separate entry of the source.

Experiments:
[1] = tested on: 49-day-old S. mansoni adult worms; assay: In vitro experiments with adult worms of S. mansoni (mortality, motor activity); assay type: cell-based, Schistosoma mansoni; details: for Dead Worms (%) F / Motor Activity Reduction (%) Significant F / Motor Activity Reduction (%) Slight F: female worms; for Dead Worms (%) M / Motor Activity Reduction (%) Significant M / Motor Activity Reduction (%) Slight M: male worms
How it was run: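 BH-strain worm pairs recovered from hamsters 49 days post-infection, washed in RPMI 1640 with penicillin, streptomycin and amphotericin B, and cultured as mated pairs with or without drug for 96 h. Motor activity changes and death were scored by microscopy.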

[2] = tested on: murine fibroblast (NIH-3T3) cells; assay: MTT cytotoxicity assay in murine fibroblasts; assay type: cell-based
How it was run: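 NIH-3T3 cells exposed 24 h to samples at 25–800 µg/mL in 3% DMSO, with 3% DMSO as control. MTT (5 mg/mL stock) added for 2 h, formazan dissolved in DMSO, absorbance read at 595 nm.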

J774A.1 cells = assay: Cell death mechanism, annexin-V FITC / propidium iodide staining by flow cytometry; assay type: cell-based, mouse; details: J774A.1, 24 h; piplartine 25 μg/mL, 14B 400 μg/mL
Experimental: Cells were then treated with 2 µL of annexin-V FITC (Apoptosis Detection Kit; BD Biosciences, Franklin Lakes, NJ, USA) and 2 µL of propidium iodide (PI, 50 µg/mL) for 15 min in the dark at room temperature. Next, 100 µL binding buffer was added and samples were analysed by flow cytometry (BD LSFortessa^TM, Franklin Lakes, NJ, USA). A total of 20,000 events were collected per sample.

O=C(/C=C/c1ccc2c(c1)OCO2)N1CCCC1 [Compound 14B]
Dead Worms (%) F ([1]; 5 µM, 24 h): 0% | Motor Activity Reduction (%) Significant F ([1]; 5 µM, 24 h): 0% | Motor Activity Reduction (%) Slight F ([1]; 5 µM, 24 h): 0% | Dead Worms (%) M ([1]; 5 µM, 24 h): 0% | Motor Activity Reduction (%) Significant M ([1]; 5 µM, 24 h): 0% | Motor Activity Reduction (%) Slight M ([1]; 5 µM, 24 h): 0% | Dead Worms (%) F ([1]; 5 µM, 48 h): 0% | Motor Activity Reduction (%) Significant F ([1]; 5 µM, 48 h): 0% | Motor Activity Reduction (%) Slight F ([1]; 5 µM, 48 h): 0% | Dead Worms (%) M ([1]; 5 µM, 48 h): 0% | Motor Activity Reduction (%) Significant M ([1]; 5 µM, 48 h): 0% | Motor Activity Reduction (%) Slight M ([1]; 5 µM, 48 h): 0% | Dead Worms (%) F ([1]; 5 µM, 72 h): 0% | Motor Activity Reduction (%) Significant F ([1]; 5 µM, 72 h): 0% | Motor Activity Reduction (%) Slight F ([1]; 5 µM, 72 h): 0% | Dead Worms (%) M ([1]; 5 µM, 72 h): 0% | Motor Activity Reduction (%) Significant M ([1]; 5 µM, 72 h): 0% | Motor Activity Reduction (%) Slight M ([1]; 5 µM, 72 h): 0% | Dead Worms (%) F ([1]; 5 µM, 96 h): 0% | Motor Activity Reduction (%) Significant F ([1]; 5 µM, 96 h): 0% | Motor Activity Reduction (%) Slight F ([1]; 5 µM, 96 h): 0% | Dead Worms (%) M ([1]; 5 µM, 96 h): 0% | Motor Activity Reduction (%) Significant M ([1]; 5 µM, 96 h): 0% | Motor Activity Reduction (%) Slight M ([1]; 5 µM, 96 h): 0% | Dead Worms (%) F ([1]; 10 µM, 24 h): 0% | Motor Activity Reduction (%) Significant F ([1]; 10 µM, 24 h): 0% | Motor Activity Reduction (%) Slight F ([1]; 10 µM, 24 h): 0% | Dead Worms (%) M ([1]; 10 µM, 24 h): 0% | Motor Activity Reduction (%) Significant M ([1]; 10 µM, 24 h): 0% | Motor Activity Reduction (%) Slight M ([1]; 10 µM, 24 h): 0% | Dead Worms (%) F ([1]; 10 µM, 48 h): 0% | Motor Activity Reduction (%) Significant F ([1]; 10 µM, 48 h): 0% | Motor Activity Reduction (%) Slight F ([1]; 10 µM, 48 h): 0% | Dead Worms (%) M ([1]; 10 µM, 48 h): 0% | Motor Activity Reduction (%) Significant M ([1]; 10 µM, 48 h): 0% | Motor Activity Reduction (%) Slight M ([1]; 10 µM, 48 h): 0% | Dead Worms (%) F ([1]; 10 µM, 72 h): 0% | Motor Activity Reduction (%) Significant F ([1]; 10 µM, 72 h): 0% | Motor Activity Reduction (%) Slight F ([1]; 10 µM, 72 h): 0% | Dead Worms (%) M ([1]; 10 µM, 72 h): 0% | Motor Activity Reduction (%) Significant M ([1]; 10 µM, 72 h): 0% | Motor Activity Reduction (%) Slight M ([1]; 10 µM, 72 h): 0% | Dead Worms (%) F ([1]; 10 µM, 96 h): 0% | Motor Activity Reduction (%) Significant F ([1]; 10 µM, 96 h): 0% | Motor Activity Reduction (%) Slight F ([1]; 10 µM, 96 h): 0% | Dead Worms (%) M ([1]; 10 µM, 96 h): 0% | Motor Activity Reduction (%) Significant M ([1]; 10 µM, 96 h): 0% | Motor Activity Reduction (%) Slight M ([1]; 10 µM, 96 h): 0% | Dead Worms (%) F ([1]; 25 µM, 24 h): 0% | Motor Activity Reduction (%) Significant F ([1]; 25 µM, 24 h): 0% | Motor Activity Reduction (%) Slight F ([1]; 25 µM, 24 h): 0% | Dead Worms (%) M ([1]; 25 µM, 24 h): 0% | Motor Activity Reduction (%) Significant M ([1]; 25 µM, 24 h): 0% | Motor Activity Reduction (%) Slight M ([1]; 25 µM, 24 h): 0% | Dead Worms (%) F ([1]; 25 µM, 48 h): 0% | Motor Activity Reduction (%) Significant F ([1]; 25 µM, 48 h): 0% | Motor Activity Reduction (%) Slight F ([1]; 25 µM, 48 h): 0% | Dead Worms (%) M ([1]; 25 µM, 48 h): 0% | Motor Activity Reduction (%) Significant M ([1]; 25 µM, 48 h): 0% | Motor Activity Reduction (%) Slight M ([1]; 25 µM, 48 h): 0% | Dead Worms (%) F ([1]; 25 µM, 72 h): 0% | Motor Activity Reduction (%) Significant F ([1]; 25 µM, 72 h): 0% | Motor Activity Reduction (%) Slight F ([1]; 25 µM, 72 h): 0% | Dead Worms (%) M ([1]; 25 µM, 72 h): 0% | Motor Activity Reduction (%) Significant M ([1]; 25 µM, 72 h): 0% | Motor Activity Reduction (%) Slight M ([1]; 25 µM, 72 h): 0% | Dead Worms (%) F ([1]; 25 µM, 96 h): 0% | Motor Activity Reduction (%) Significant F ([1]; 25 µM, 96 h): 0% | Motor Activity Reduction (%) Slight F ([1]; 25 µM, 96 h): 0% | Dead Worms (%) M ([1]; 25 µM, 96 h): 0% | Motor Activity Reduction (%) Significant M ([1]; 25 µM, 96 h): 0% | Motor Activity Reduction (%) Slight M ([1]; 25 µM, 96 h): 0% | Dead Worms (%) F ([1]; 50 µM, 24 h): 0% | Motor Activity Reduction (%) Significant F ([1]; 50 µM, 24 h): 0% | Motor Activity Reduction (%) Slight F ([1]; 50 µM, 24 h): 0% | Dead Worms (%) M ([1]; 50 µM, 24 h): 0% | Motor Activity Reduction (%) Significant M ([1]; 50 µM, 24 h): 0% | Motor Activity Reduction (%) Slight M ([1]; 50 µM, 24 h): 0% | Dead Worms (%) F ([1]; 50 µM, 48 h): 0% | Motor Activity Reduction (%) Significant F ([1]; 50 µM, 48 h): 0% | Motor Activity Reduction (%) Slight F ([1]; 50 µM, 48 h): 0% | Dead Worms (%) M ([1]; 50 µM, 48 h): 0% | Motor Activity Reduction (%) Significant M ([1]; 50 µM, 48 h): 0% | Motor Activity Reduction (%) Slight M ([1]; 50 µM, 48 h): 0% | Dead Worms (%) F ([1]; 50 µM, 72 h): 0% | Motor Activity Reduction (%) Significant F ([1]; 50 µM, 72 h): 0% | Motor Activity Reduction (%) Slight F ([1]; 50 µM, 72 h): 0% | Dead Worms (%) M ([1]; 50 µM, 72 h): 0% | Motor Activity Reduction (%) Significant M ([1]; 50 µM, 72 h): 0% | Motor Activity Reduction (%) Slight M ([1]; 50 µM, 72 h): 0% | Dead Worms (%) F ([1]; 50 µM, 96 h): 0% | Motor Activity Reduction (%) Significant F ([1]; 50 µM, 96 h): 0% | Motor Activity Reduction (%) Slight F ([1]; 50 µM, 96 h): 0% | Dead Worms (%) M ([1]; 50 µM, 96 h): 0% | Motor Activity Reduction (%) Significant M ([1]; 50 µM, 96 h): 0% | Motor Activity Reduction (%) Slight M ([1]; 50 µM, 96 h): 0% | activity against S. mansoni adult worms (in words) ([1]; analogues 50, 25, 10 and 5 μM, piplartine 5 and 10 μM, up to 96 h): loss of biological activity against S. mansoni | effect on NIH-3T3 cell viability (in words) ([2]; MTT, 24 h exposure, 25 to 800 µg/mL): considerable reduction in cell viability at concentrations of 400 and 800 μg/mL; also recorded: showed toxicity at 200, 400 and 800 μg/mL | Emax at 800 µg/mL ([2]; Mus musculus, NIH3T3, 24 h, decrease in cell viability at the maximum concentration tested (800 μg/mL), NIH-3T3, 24 h): 83.64 ± 0.47% | annexin-V FITC staining (apoptosis marker) vs DMEM negative control (in words) (J774A.1 cells): significant (p < 0.05) increase in annexin-V FITC staining

OO [Compound H2O2, hydrogen peroxide, reference compound]
annexin-V FITC staining (apoptosis marker) vs DMEM negative control (in words) (J774A.1 cells): significant (p < 0.05) increase in annexin-V FITC fluorescence intensity
